Experimental data reported in patent US11767322B2 (BRISTOL-MYERS SQUIBB COMPANY, priority 2020, dated 2023).
Read-outs that look alike come from different tables or passages of the source.

Columns and labels:
[1] = biological target: T1, His-GST-TVMV-hRIPK1(1-324) (Homo sapiens, UniProt Q13546); experiment: biochemical; assay type: binding; settings: read-out: RIPK1 IC50
T1 construct: The coding region of human RIPK1(1-324) flanked by NdeI site at 5′ end; made in house; host or cells: Spodoptera frugiperda Sf9 insect cells (baculovirus, Bac-to-Bac)
T1 sequence (Q13546 1-324): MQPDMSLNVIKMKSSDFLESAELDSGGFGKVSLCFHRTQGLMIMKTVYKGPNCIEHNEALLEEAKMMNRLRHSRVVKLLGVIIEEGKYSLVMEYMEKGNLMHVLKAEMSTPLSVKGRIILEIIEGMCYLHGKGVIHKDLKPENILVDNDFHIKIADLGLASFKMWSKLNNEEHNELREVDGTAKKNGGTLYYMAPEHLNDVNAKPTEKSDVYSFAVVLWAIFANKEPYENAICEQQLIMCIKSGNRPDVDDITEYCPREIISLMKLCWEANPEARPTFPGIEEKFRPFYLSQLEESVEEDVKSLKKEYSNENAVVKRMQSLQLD

[2] = test system: MLKL phosphorylation in HT29-L23 human colorectal adenocarcinoma cells; experiment: MLKL phosphorylation high-content assay; assay type: cell-based
[3] = HTRF probe displacement, 1 h at rt
[4] = Homo sapiens, 6 h, read-out: pMLKL IC50, HT29-L23 cells, necroptosis induced with TNFα, SMAC mimetic and Z-VAD, 6 h, maximal inhibition defined by Nec1s
[5] = read-out: pMLKL IC50, HT29-L23 cells, necroptosis induced with TNFα, SMAC mimetic and Z-VAD, 6 h, maximal inhibition defined by Nec1s

Row | Compound | IC50 [1, 3] | IC50 [2, 4] | IC50 [2, 5] | IC50 ([1]; Table 23, representative compounds from WO2018/148626) | IC50 ([2]; Homo sapiens, Table 23, representative compounds from WO2018/148626, read-out: pMLKL IC50)
1 | [2H]C([2H])([2H])c1ccc(-c2ccn3nc(N)nc3c2)c(F)c1C(=O)NC[C@@H](F)[C@@](C)(O)c1ccc(F)cc1 [Example 216, 3-(2-amino-[1,2,4]triazolo[1,5-a]pyridin-7-yl)-2-fluoro-N-((2R,3S)-2-fluoro-3-(4-fluorophenyl)-3-hydroxybutyl)-6-(methyl-d3)benzamide] | 4.7 nM | 0.4 nM |  |  | 
2 | [2H]C([2H])([2H])C(O)(c1ccc(F)cc1)C(F)CNC(=O)c1c(C(F)F)ccc(-c2ccn3nc(N)nc3c2)c1F (single isomer, unassigned) [Example 196, 3-(2-amino-[1,2,4]triazolo[1,5-a]pyridin-7-yl)-6-(difluoromethyl)-2-fluoro-N-(2-fluoro-3-(4-fluorophenyl)-3-hydroxybutyl-4,4,4-d3)benzamide] | 14 nM |  | 1 nM |  | 
3 | Nc1nc2cc(-c3ccc(Cl)c(C(=O)NCC(F)(F)C(O)c4ccc(C(F)(F)F)cc4F)c3F)ccn2n1 (centres unmarked) [Example 164, 3-(2-amino-[1,2,4]triazolo[1,5-a]pyridin-7-yl)-6-chloro-N-(2,2-difluoro-3-(2-fluoro-4-(trifluoromethyl)phenyl)-3-hydroxypropyl)-2-fluorobenzamide] | 2.8 nM | 2.9 nM |  |  | 
4 | [2H]C([2H])([2H])c1ccc(-c2ccn3nc(N)nc3c2)c(F)c1C(=O)NCC1(C([2H])(O)c2ccc(F)cc2)CC1 (single isomer, unassigned) [Example 310, 3-(2-amino-[1,2,4]triazolo[1,5-a]pyridin-7-yl)-2-fluoro-N-((1-((4-fluorophenyl) (hydroxy)methyl-d)cyclopropyl)methyl)-6-(methyl-d3)benzamide] | 5.7 nM |  | 20 nM |  | 
5 | Cc1cc(F)c(-c2ccn3nc(N)nc3c2)cc1C(=O)NCC(F)(F)C(C)(O)c1ccc(Cl)cc1 (single isomer, unassigned) [Example 225, 5-(2-amino-[1,2,4]triazolo[1,5-a]pyridin-7-yl)-N-(3-(4-chlorophenyl)-2,2-difluoro-3-hydroxybutyl)-4-fluoro-2-methylbenzamide] | 19 nM | 3.8 nM |  |  | 
6 | Cc1ncc(-c2ccn3nc(N)nc3c2)cc1C(=O)NCC(C)(O)Cc1ccc(F)cc1 (centres unmarked) [Compound 421 from WO2018/148626, reference compound] |  |  |  | 110 nM | 315 nM
7 | Cc1ccc(-c2ccn3nc(N)nc3c2)c(F)c1C(=O)NCC(C)(F)C(O)c1ccc(F)cc1 (single isomer, unassigned) [Example 205, 3-(2-amino-[1,2,4]triazolo[1,5-a]pyridin-7-yl)-2-fluoro-N-(2-fluoro-3-(4-fluorophenyl)-3-hydroxy-2-methylpropyl)-6-methylbenzamide] | 6.2 nM |  | 5.1 nM |  | 
8 | Cc1ccc(-c2ccn3nc(N)nc3c2)c(F)c1C(=O)NCC(C)(F)C(O)c1ccc(F)cc1 (single isomer, unassigned) [Example 204, 3-(2-amino-[1,2,4]triazolo[1,5-a]pyridin-7-yl)-2-fluoro-N-(2-fluoro-3-(4-fluorophenyl)-3-hydroxy-2-methylpropyl)-6-methylbenzamide] | 5.8 nM |  | 2.7 nM |  | 
9 | Nc1nc2cc(-c3ccc(Cl)c(C(=O)NCC(F)(F)C(O)c4cccc(F)c4)c3F)ccn2n1 (single isomer, unassigned) [Example 169, 3-{2-amino-[1,2,4]triazolo[1,5-a]pyridin-7-yl}-6-chloro-N-[2,2-difluoro-3-(3-fluorophenyl)-3-hydroxypropyl]-2-fluorobenzamide] | 0.9 nM |  | 28 nM |  | 
10 | [2H]C([2H])([2H])c1ccc(-c2ccn3nc(N)nc3c2)c(F)c1C(=O)NCC(F)(F)C(C)(O)c1ccc(Cl)cc1 (single isomer, unassigned) [Example 253, 3-(2-amino-[1,2,4]triazolo[1,5-a]pyridin-7-yl)-N-(3-(4-chlorophenyl)-2,2-difluoro-3-hydroxybutyl)-2-fluoro-6-(methyl-d3)benzamide] | 2.4 nM |  | 1.2 nM |  | 
